Consider 1 compound from patent US10202391B2, “Chemical compounds” (AstraZeneca AB, priority 2015, dated 2019).

Common to all, as to assay type: cell-based, human
Conditions in all cases: Example 18 with selumetinib, 6x6 dosing matrix 0-10 μmol/L, 3 days, Loewe model, average of three or more experiments

The subject of one assay is H2009 cell line. Description: Combination cell growth inhibition (Sytox Green, Loewe synergy), H2009. The source says: (§1) A549 is a human non small cell lung cancer line carrying an oncogenic mutation in the KRAS gene (G12S). H2122 is a human non small cell lung cancer line carrying an oncogenic mutation in the KRAS gene (G12C). H2009 is a human non small cell lung cancer line carrying an oncogenic mutation in the KRAS gene (G12A). Calu6 is a human non small cell lung cancer line carrying mutation in the KRAS ([…]) gene. All cell lines were obtained from the American Type Culture Collection.
(§2) All cell line were maintained at 37° C. and 5% CO2 in a humidified atmosphere and grown in RPMI-1640 growth media supplemented with 10% FBS and 2 mmol/L glutamine. […]
(§3) Cells were seeded in 384-well black, clear bottomed plates (Greiner Bio-One, Stonehouse, UK), cultured for 18-24 hours and treated with increasing concentrations of Example 18 and selumetinib (0-10 μmol/L) in a 6×6 dosing matrix. […] After 3 days of treatment, live cell number was determined using a Sytox Green endpoint as described previously (“Davies B R, Greenwood H, Dudley P, et al: Preclinical pharmacology of AZD5363, an inhibitor of AKT: Pharmacodynamics, antitumor activity, and correlation of monotherapy activity with genetic background. Mol Cancer Ther 11(4):873-87, 2012”). […] Cells were then permeabilised by the overnight addition of saponin (0.03% final concentration, diluted in TBS-EDTA buffer) and a total cell count measured. […]

A further assay deals with H2122 cell line. Description: Combination cell growth inhibition (Sytox Green, Loewe synergy), H2122.
Text: as §1, §2, §3

For another assay, the system named is Calu6 cell line. Description: Combination cell growth inhibition (Sytox Green, Loewe synergy), Calu6.
Text: as §1, §2, §3

In the case of `COC[C@H]1Cn2cc(-c3nc(Nc4ccnn4C)ncc3C)nc2C(=O)N1Cc1ccc(F)c(F)c1` [Example 18, (R)-7-(3,4-Difluorobenzyl)-6-(methoxymethyl)-2-(5-methyl-2-((1-methyl-1H-pyrazol-5-yl)amino)pyrimidin-4-yl)-6,7-dihydroimidazo[1,2-a]pyrazin-8(5H)-one], the Synergy score in the assay with H2009 cell line is on record as 67.5; with H2122 cell line it was 14.3; in the assay with Calu6 cell line, 3.
